According to ChEMBL document CHEMBL3991601, “The target landscape of clinical kinase drugs” (Science, 2017):
Structures can show the parent of a compound that is named as a salt. Calls of active or inactive are those of the source.

Columns and labels:
[1] = molecular target: Insulin-like growth factor 1 receptor (Homo sapiens, UniProt P08069)
[2] = molecular target: T1, Serine/threonine-protein kinase NLK (Homo sapiens, UniProt Q9UBE8)
T1 sequence (Q9UBE8 whole entry): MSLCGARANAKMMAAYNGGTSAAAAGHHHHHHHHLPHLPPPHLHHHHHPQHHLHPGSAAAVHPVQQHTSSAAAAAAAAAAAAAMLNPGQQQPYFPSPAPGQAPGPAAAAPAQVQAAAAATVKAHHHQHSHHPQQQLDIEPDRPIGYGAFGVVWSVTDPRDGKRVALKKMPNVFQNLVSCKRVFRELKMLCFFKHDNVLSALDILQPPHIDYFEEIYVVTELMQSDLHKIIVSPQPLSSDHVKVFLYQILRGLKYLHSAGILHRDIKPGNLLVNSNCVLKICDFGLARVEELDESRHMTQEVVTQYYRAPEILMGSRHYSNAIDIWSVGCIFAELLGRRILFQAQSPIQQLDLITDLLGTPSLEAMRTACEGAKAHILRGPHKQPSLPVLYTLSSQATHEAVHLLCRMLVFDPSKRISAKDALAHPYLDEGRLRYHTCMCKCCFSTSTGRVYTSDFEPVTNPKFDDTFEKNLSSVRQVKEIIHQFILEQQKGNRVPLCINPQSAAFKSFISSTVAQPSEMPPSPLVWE

[3] = molecular target: Ephrin type-A receptor 7 (Homo sapiens, UniProt Q15375)
[4] = molecular target: T2, ATP-dependent RNA helicase DDX42 (Homo sapiens, UniProt Q86XP3)
T2 sequence (Q86XP3 whole entry): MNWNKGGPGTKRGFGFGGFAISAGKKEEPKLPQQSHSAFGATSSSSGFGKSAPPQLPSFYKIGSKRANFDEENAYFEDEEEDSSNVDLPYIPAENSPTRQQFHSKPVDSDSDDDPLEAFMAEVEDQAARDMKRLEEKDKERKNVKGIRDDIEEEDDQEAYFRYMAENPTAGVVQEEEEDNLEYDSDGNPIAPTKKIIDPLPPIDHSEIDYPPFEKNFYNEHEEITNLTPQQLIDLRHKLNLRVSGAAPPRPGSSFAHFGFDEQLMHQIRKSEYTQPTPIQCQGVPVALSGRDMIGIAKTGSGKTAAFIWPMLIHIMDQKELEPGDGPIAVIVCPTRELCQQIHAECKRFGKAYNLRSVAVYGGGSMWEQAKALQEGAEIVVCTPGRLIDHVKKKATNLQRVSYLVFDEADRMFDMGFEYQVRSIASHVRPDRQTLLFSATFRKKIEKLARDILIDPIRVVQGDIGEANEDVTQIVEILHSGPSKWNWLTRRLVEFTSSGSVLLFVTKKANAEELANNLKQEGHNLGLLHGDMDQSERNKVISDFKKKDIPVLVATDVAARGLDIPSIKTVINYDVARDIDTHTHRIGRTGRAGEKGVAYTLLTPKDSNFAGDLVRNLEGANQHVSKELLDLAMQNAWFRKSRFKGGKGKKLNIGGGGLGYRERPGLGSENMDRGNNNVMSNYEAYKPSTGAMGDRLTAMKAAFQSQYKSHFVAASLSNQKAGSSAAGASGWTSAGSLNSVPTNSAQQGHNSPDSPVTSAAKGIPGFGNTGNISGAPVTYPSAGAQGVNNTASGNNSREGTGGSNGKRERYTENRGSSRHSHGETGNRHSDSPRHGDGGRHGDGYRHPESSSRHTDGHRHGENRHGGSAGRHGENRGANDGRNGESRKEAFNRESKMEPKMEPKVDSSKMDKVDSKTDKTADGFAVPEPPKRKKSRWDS

[5] = molecular target: Inosine-5'-monophosphate dehydrogenase 2 (Homo sapiens, UniProt P12268)
[6] = molecular target: cAMP-dependent protein kinase type II-alpha regulatory subunit (Homo sapiens, UniProt P13861)
[7] = molecular target: Protein kinase C theta type (Homo sapiens, UniProt Q04759)
[8] = molecular target: T3, Cysteine--tRNA ligase, cytoplasmic (Homo sapiens, UniProt P49589)
T3 sequence (P49589 whole entry): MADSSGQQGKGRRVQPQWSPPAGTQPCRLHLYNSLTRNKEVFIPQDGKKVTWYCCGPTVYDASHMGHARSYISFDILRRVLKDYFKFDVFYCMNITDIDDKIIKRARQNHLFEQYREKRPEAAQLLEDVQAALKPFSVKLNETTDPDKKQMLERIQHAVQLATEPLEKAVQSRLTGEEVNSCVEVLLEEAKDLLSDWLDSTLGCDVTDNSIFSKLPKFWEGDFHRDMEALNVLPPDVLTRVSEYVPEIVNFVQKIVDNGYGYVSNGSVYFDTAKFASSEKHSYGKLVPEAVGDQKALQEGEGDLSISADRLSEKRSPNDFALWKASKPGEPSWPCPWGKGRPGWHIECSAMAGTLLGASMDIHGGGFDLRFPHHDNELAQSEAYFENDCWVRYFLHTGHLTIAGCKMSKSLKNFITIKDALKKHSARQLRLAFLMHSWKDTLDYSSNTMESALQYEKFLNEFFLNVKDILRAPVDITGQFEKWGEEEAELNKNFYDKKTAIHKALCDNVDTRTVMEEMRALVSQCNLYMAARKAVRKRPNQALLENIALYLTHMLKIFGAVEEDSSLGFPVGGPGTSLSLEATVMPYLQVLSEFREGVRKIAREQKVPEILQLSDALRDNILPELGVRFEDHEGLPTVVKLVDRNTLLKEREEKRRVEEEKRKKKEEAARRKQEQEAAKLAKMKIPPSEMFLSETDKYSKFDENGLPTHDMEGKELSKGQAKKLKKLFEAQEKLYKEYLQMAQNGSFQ
Further: in the data inactive means no Kd found up to 30 µM.

Chain of Protein kinase C theta type (Q04759 whole entry): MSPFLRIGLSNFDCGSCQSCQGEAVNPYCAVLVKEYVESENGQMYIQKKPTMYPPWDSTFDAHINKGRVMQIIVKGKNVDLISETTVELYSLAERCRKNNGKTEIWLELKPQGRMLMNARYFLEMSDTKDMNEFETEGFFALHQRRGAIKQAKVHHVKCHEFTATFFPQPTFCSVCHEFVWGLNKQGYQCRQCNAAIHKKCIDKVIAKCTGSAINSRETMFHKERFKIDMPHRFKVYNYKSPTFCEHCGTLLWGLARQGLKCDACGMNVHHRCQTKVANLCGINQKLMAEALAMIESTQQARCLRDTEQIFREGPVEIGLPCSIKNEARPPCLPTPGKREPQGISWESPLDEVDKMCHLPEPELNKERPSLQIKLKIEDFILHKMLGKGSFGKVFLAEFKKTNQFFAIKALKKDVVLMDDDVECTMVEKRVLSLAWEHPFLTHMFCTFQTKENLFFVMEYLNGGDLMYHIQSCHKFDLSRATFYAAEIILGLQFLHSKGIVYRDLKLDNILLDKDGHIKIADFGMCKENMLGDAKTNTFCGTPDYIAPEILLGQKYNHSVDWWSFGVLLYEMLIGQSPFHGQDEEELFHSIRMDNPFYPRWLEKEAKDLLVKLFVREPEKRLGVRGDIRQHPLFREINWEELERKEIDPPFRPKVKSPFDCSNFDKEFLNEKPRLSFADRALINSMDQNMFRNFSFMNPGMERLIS
Chain of Ephrin type-A receptor 7 (Q15375 whole entry): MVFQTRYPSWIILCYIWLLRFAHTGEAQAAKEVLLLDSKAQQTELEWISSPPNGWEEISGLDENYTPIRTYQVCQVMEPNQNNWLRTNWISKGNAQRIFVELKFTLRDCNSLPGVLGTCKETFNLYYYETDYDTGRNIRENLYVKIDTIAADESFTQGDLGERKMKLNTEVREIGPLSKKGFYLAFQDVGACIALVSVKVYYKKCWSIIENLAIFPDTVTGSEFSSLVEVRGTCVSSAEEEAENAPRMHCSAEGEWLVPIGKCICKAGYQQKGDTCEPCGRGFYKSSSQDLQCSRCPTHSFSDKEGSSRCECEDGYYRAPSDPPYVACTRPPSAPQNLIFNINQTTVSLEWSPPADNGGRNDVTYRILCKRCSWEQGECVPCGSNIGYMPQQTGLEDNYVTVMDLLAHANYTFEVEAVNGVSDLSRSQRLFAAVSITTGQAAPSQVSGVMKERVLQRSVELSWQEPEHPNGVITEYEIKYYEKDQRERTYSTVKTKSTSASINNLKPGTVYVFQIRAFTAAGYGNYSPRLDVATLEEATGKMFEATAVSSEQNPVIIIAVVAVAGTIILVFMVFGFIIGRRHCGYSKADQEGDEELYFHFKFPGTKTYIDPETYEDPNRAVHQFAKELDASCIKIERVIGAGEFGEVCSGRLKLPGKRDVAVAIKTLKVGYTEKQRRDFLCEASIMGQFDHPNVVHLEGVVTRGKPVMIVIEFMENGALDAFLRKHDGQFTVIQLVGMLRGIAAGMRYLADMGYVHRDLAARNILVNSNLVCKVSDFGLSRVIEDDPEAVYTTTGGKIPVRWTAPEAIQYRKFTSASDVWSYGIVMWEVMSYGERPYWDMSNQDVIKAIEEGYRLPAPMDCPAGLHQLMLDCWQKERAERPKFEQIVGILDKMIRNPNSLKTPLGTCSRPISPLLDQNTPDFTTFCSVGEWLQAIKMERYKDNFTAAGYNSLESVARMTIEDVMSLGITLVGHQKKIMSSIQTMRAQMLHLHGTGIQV
Chain of cAMP-dependent protein kinase type II-alpha regulatory subunit (P13861 whole entry): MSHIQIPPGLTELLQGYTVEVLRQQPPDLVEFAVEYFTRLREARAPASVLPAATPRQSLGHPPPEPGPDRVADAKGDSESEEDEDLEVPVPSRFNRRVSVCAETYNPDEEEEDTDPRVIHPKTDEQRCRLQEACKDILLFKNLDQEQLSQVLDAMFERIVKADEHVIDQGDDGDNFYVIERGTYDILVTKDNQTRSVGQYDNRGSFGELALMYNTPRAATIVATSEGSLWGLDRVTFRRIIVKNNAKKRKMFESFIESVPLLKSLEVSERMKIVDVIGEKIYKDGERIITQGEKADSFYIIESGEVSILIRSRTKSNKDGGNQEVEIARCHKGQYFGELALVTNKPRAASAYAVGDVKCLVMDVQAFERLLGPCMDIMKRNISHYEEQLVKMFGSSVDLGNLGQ
Chain of Insulin-like growth factor 1 receptor (P08069 31-736 limits assumed): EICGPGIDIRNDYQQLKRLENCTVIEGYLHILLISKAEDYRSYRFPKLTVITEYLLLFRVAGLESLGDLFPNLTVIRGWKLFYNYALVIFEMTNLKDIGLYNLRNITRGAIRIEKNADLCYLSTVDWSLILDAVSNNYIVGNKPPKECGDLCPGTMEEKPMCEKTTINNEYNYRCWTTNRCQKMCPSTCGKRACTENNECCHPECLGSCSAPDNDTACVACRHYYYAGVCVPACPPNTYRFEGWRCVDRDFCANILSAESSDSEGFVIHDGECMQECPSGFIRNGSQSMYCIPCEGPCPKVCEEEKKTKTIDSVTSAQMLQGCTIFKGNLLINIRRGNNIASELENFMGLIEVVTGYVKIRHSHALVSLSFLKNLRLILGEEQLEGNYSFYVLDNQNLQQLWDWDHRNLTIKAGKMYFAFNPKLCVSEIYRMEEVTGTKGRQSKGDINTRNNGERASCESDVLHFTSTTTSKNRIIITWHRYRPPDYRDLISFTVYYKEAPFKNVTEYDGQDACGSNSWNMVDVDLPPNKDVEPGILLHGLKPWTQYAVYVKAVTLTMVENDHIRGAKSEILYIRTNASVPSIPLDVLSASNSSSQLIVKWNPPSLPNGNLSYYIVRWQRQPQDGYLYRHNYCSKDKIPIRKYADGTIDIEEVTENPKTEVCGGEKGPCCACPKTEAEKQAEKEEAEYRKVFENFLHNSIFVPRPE
Chain of Insulin-like growth factor 1 receptor (P08069 741-1367 limits assumed): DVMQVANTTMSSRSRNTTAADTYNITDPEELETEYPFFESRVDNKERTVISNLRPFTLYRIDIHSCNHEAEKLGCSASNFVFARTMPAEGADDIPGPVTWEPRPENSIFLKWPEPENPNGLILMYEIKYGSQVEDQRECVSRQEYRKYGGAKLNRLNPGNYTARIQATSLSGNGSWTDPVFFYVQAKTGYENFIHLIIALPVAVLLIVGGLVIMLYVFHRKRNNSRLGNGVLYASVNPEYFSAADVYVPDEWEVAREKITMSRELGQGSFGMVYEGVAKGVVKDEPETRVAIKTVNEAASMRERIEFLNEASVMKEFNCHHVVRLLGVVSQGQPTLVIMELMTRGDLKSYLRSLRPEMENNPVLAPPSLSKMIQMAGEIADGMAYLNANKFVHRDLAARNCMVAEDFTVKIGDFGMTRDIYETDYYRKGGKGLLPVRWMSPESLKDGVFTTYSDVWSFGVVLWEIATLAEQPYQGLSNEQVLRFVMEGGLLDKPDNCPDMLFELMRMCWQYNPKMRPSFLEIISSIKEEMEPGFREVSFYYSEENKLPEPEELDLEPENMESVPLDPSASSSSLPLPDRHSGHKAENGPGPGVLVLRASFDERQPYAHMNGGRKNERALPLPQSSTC

Compound	Kd [1]	Kd [2]	Kd [3]	Kd [4]	Kd [5]	Kd [6]	Kd [7]	Kd [8]
C[C@@H](Oc1cc(C(=O)Nc2ccc(C(=O)N3CCN(C)CC3)cc2)nnc1N)c1c(Cl)ccc(F)c1Cl	> 30 µM (inactive)	> 30 µM (inactive)	> 30 µM (inactive)	> 30 µM (inactive)	> 30 µM (inactive)			
C[C@H]1CNCCCN1S(=O)(=O)c1cccc2cncc(F)c12	> 30 µM (inactive)	> 30 µM (inactive)		> 30 µM (inactive)	> 30 µM (inactive)	> 30 µM (inactive)		
Cc1csc(-c2nnc(Nc3ccc(Oc4ncccc4-c4ccnc(N)n4)cc3)c3ccccc23)c1 [AMG-900]	> 30 µM (inactive)	> 30 µM (inactive)	> 30 µM (inactive)	> 30 µM (inactive)	> 30 µM (inactive)	> 30 µM (inactive)	> 30 µM (inactive)	
C=CC(=O)Nc1cc2c(Nc3ccc(F)c(Cl)c3)ncnc2cc1C#CC(C)(C)N1CCN(C)CC1 [AV-412 FREE BASE]	> 30 µM (inactive)	> 30 µM (inactive)	> 30 µM (inactive)	> 30 µM (inactive)	> 30 µM (inactive)	> 30 µM (inactive)	> 30 µM (inactive)	
CNC(=O)c1ccccc1Sc1ccc2c(/C=C/c3ccccn3)n[nH]c2c1 [AXITINIB]				> 30 µM (inactive)	> 30 µM (inactive)	> 30 µM (inactive)		> 30 µM (inactive)
NC(=O)Nc1cc(-c2cccc(F)c2)sc1C(=O)N[C@H]1CCCNC1 [AZD-7762]	> 30 µM (inactive)	> 30 µM (inactive)	> 30 µM (inactive)		> 30 µM (inactive)	> 30 µM (inactive)	> 30 µM (inactive)	
CCS(=O)(=O)N1CCN(c2ccc(Nc3ncc(C(N)=O)c(NC4CC4)n3)cc2)CC1 [Cerdulatinib Hydrochloride]	> 30 µM (inactive)	> 30 µM (inactive)	> 30 µM (inactive)	> 30 µM (inactive)	> 30 µM (inactive)	> 30 µM (inactive)	> 30 µM (inactive)	
Cn1cc(C2=C(c3cn(C4CCN(Cc5ccccn5)CC4)c4ccccc34)C(=O)NC2=O)c2ccccc21 [ENZASTAURIN]					> 30 µM (inactive)	> 30 µM (inactive)		> 30 µM (inactive)
Cc1nc2cc(-n3ncc(C(=O)c4cc5ccccc5[nH]4)c3N)ccc2[nH]1 [FGFR INHIBITOR DEBIO 1347]	> 30 µM (inactive)	> 30 µM (inactive)		> 30 µM (inactive)	> 30 µM (inactive)	> 30 µM (inactive)	> 30 µM (inactive)	
O=C(Nc1nc2cccc(-c3ccc(CN4CCS(=O)(=O)CC4)cc3)n2n1)C1CC1 [FILGOTINIB]	> 30 µM (inactive)	> 30 µM (inactive)	> 30 µM (inactive)	> 30 µM (inactive)	> 30 µM (inactive)	> 30 µM (inactive)	> 30 µM (inactive)	
C[C@@H](Oc1cc(-n2cnc3ccc(CN4CCN(C)CC4)cc32)sc1C(N)=O)c1ccccc1C(F)(F)F [GSK-461364]				> 30 µM (inactive)	> 30 µM (inactive)	> 30 µM (inactive)		> 30 µM (inactive)
COc1ccc(S(=O)(=O)N(C(C)=O)c2ccccc2/C=C/c2cc[n+]([O-])cc2)cc1 [HMN-214]	> 30 µM (inactive)	> 30 µM (inactive)	> 30 µM (inactive)			> 30 µM (inactive)	> 30 µM (inactive)	
COc1ncc(-c2ccc3nccc(-c4ccnnc4)c3c2)cc1NS(=O)(=O)c1ccc(F)cc1F [OMIPALISIB]	> 30 µM (inactive)	> 30 µM (inactive)	> 30 µM (inactive)		> 30 µM (inactive)	> 30 µM (inactive)	> 30 µM (inactive)	
NC(=O)c1c(OCc2c(F)cc(Br)cc2F)nsc1NC(=O)NCCCCN1CCCC1 [OSI-632]		> 30 µM (inactive)	> 30 µM (inactive)		> 30 µM (inactive)	> 30 µM (inactive)		
CNC(=O)c1cc(Oc2ccc(NC(=O)Nc3cc(C(C)(C)C)nn3-c3ccc4ncccc4c3)c(F)c2)ccn1 [REBASTINIB]	> 30 µM (inactive)	> 30 µM (inactive)		> 30 µM (inactive)	> 30 µM (inactive)	> 30 µM (inactive)	> 30 µM (inactive)	
CO[C@H]1C[C@@H]2CC[C@@H](C)[C@@](O)(O2)C(=O)C(=O)N2CCCC[C@H]2C(=O)O[C@H]([C@H](C)C[C@@H]2CC[C@@H](OP(C)(C)=O)[C@H](OC)C2)CC(=O)[C@H](C)/C=C(\C)[C@@H](O)[C@@H](OC)C(=O)[C@H](C)C[C@H](C)/C=C/C=C/C=C/1C [RIDAFOROLIMUS]	> 30 µM (inactive)	> 30 µM (inactive)		> 30 µM (inactive)	> 30 µM (inactive)	> 30 µM (inactive)	> 30 µM (inactive)	
N#CC[C@H](C1CCCC1)n1cc(-c2ncnc3[nH]ccc23)cn1 [RUXOLITINIB]					> 30 µM (inactive)	> 30 µM (inactive)		> 30 µM (inactive)
CN1CCN(CCOc2cc(OC3CCOCC3)c3c(Nc4c(Cl)ccc5c4OCO5)ncnc3c2)CC1 [SARACATINIB]	> 30 µM (inactive)	> 30 µM (inactive)	> 30 µM (inactive)	> 30 µM (inactive)	> 30 µM (inactive)	> 30 µM (inactive)	> 30 µM (inactive)	
Cn1cc(-c2cnn3c(N)c(Br)c([C@@H]4CCCNC4)nc23)cn1 [SCH-900776]	> 30 µM (inactive)	> 30 µM (inactive)	> 30 µM (inactive)	> 30 µM (inactive)	> 30 µM (inactive)	> 30 µM (inactive)	> 30 µM (inactive)	
CCS(=O)(=O)c1cccc(-c2cc(C(=O)NC3CCN(C)CC3)c(C)c3[nH]c4ncc(C)cc4c23)c1 [TAK-901]	> 30 µM (inactive)	> 30 µM (inactive)	0.615 µM (active)	> 30 µM (inactive)		> 30 µM (inactive)	> 30 µM (inactive)	
Cn1ncc(Cl)c1-c1cc(C(=O)N[C@H](CN)Cc2ccc(F)c(F)c2)oc1Cl [UPROSERTIB]	> 30 µM (inactive)	> 30 µM (inactive)	> 30 µM (inactive)	> 30 µM (inactive)	> 30 µM (inactive)	> 30 µM (inactive)		
C[C@@H](N)c1ccc(C(=O)Nc2ccnc3[nH]ccc23)cc1 [Y-39983]	> 30 µM (inactive)	> 30 µM (inactive)	> 30 µM (inactive)	> 30 µM (inactive)	> 30 µM (inactive)		0.09 µM (active)	
